Assay results published in PMC7413254 (Nature Communications, 2020).

How the values were obtained:
[1] = target: T1, PfCRT^Ecu1110 (Plasmodium falciparum, UniProt Q9N623, A220S/I356L/K76T/N326D); experiment: cell-based; format: cell-based; conditions: for Uptake of [3H]CQ (% PfCRTEcu1110 control), trans-stimulation / PfCRT-mediated [3H]CQ transport, trans-stimulation (% PfCRTEcu1110 control): PfCRTEcu1110 oocytes; for Uptake of [3H]CQ (% PfCRTEcu1110 control), trans-stimulation / Uptake of [3H]CQ (% PfCRTDd2 control), trans-stimulation, PfCRTEcu1110: total [3H]CQ transport; for Uptake of [3H]CQ (% PfCRTEcu1110 control), trans-stimulation: normalised to the oocyte type control; for PfCRT-mediated [3H]CQ transport, trans-stimulation (% PfCRTEcu1110 control): normalised to oocyte type control; for Uptake of [3H]CQ (% PfCRTDd2 control), trans-stimulation, PfCRTEcu1110 / [3H]CQ transport (% PfCRTDd2 control), trans-stimulation, PfCRTEcu1110: mean ± SEM, SEM; for [3H]CQ transport (% PfCRTDd2 control), trans-stimulation, PfCRTEcu1110: PfCRT-mediated component (background subtracted), sheet title says normalised to PfCRTDd2 control
Summary of the method: (§1)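 Oocytes (ten per treatment, ≥4 independent frogs/days) were preloaded by injecting VF-6 in 25 nL ND96 at pH 5.0, 5.5, 6.0 or 7.0, or Na^+-free choline buffer, then uptake run 1.5 h, 27.5 °C, ND96 pH 5.5 by default. Internal concentrations assumed ~400 nL oocyte volume.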

[2] = target: PfCRT^3D7 (Plasmodium falciparum, UniProt Q8IBZ9); experiment: cell-based; format: cell-based; conditions: for Uptake of [3H]CQ (% PfCRT3D7 control), trans-stimulation / PfCRT-mediated [3H]CQ transport, trans-stimulation (% PfCRT3D7 control): PfCRT3D7 oocytes; for Uptake of [3H]CQ (% PfCRT3D7 control), trans-stimulation / Uptake of [3H]CQ (% PfCRTDd2 control), trans-stimulation, PfCRT3D7: total [3H]CQ transport; for Uptake of [3H]CQ (% PfCRT3D7 control), trans-stimulation: normalised to the oocyte type control; for PfCRT-mediated [3H]CQ transport, trans-stimulation (% PfCRT3D7 control): normalised to oocyte type control; for Uptake of [3H]CQ (% PfCRTDd2 control), trans-stimulation, PfCRT3D7: mean ± SEM, SEM
Summary of the method: as §1

[3] = target: T2, PfNT1 (Plasmodium falciparum, UniProt Q8IDM6); experiment: cell-based; format: cell-based; conditions: total [3H]CQ transport; for Uptake of [3H]CQ (% PfNT1 control), trans-stimulation: PfNT1 oocytes, normalised to the oocyte type control; for Uptake of [3H]CQ (% PfCRTDd2 control), trans-stimulation, PfNT1: mean ± SEM, SEM
T2 construct: expressed in transfected cells; host or cells: Xenopus laevis oocytes (stage V-VI), cRNA-injected
Summary of the method: as §1

[4] = target: PfCRT^Dd2 (Plasmodium falciparum, UniProt Q9N623, A220S/I356T/K76T/M74I/N326S/N75E/Q271E/R371I); experiment: cell-based; format: cell-based; conditions: for Uptake of [3H]CQ (% PfCRTDd2 control), trans-stimulation / PfCRT-mediated [3H]CQ transport, trans-stimulation (% PfCRTDd2 control): PfCRTDd2 oocytes; for Uptake of [3H]CQ (% PfCRTDd2 control), trans-stimulation / Uptake of [3H]CQ (% PfCRTDd2 control), trans-stimulation, PfCRTDd2: total [3H]CQ transport; for Uptake of [3H]CQ (% PfCRTDd2 control), trans-stimulation: normalised to the oocyte type control; for PfCRT-mediated [3H]CQ transport, trans-stimulation (% PfCRTDd2 control): normalised to oocyte type control; for Uptake of [3H]CQ (% PfCRTDd2 control), trans-stimulation, PfCRTDd2 / [3H]CQ transport (% PfCRTDd2 control), trans-stimulation, PfCRTDd2: mean ± SEM, SEM; for [3H]CQ transport (% PfCRTDd2 control), trans-stimulation, PfCRTDd2: PfCRT-mediated component (background subtracted)
Summary of the method: as §1

[5] = system: PfCRT; experiment: Potential co-substrates tested for influx of VF-6 via PfCRT into the oocyte; format: cell-based, Plasmodium falciparum; set-up: key: X: Compounds that have been tested as potential co-substrates but are not required for influx of VF-6 via PfCRT into the oocyte
[6] = target: T1, PfCRT^Ecu1110; experiment: [3H]CQ uptake into Xenopus oocytes, cis-inhibition by unlabelled solute; format: cell-based; conditions: PfCRTEcu1110 oocytes; for Uptake of [3H]CQ (% PfCRTEcu1110 control), cis-inhibition: total [3H]CQ transport, normalised to the oocyte type control
Summary of the method: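 Inward transport into oocyte cytosol from pH 5.5 medium models PfCRT efflux from the acidic digestive vacuole. Incubation 1.5 h, 27.5 °C; termination by ice-cold washes; lysate radioactivity counted.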

[7] = [test solute]i = 45 mM (30 mM for some solutes due to solubility)
[8] = [test solute]i = 5 mM (intracellular)
[9] = [test solute]i = 45 mM (intracellular; 30 mM for some solutes due to solubility)
[10] = [test solute]i = 5 mM (injected)

PfCRT^Dd2, sequence (Q9N623 whole entry A220S/I356T/K76T/M74I/N326S/N75E/Q271E/R371I): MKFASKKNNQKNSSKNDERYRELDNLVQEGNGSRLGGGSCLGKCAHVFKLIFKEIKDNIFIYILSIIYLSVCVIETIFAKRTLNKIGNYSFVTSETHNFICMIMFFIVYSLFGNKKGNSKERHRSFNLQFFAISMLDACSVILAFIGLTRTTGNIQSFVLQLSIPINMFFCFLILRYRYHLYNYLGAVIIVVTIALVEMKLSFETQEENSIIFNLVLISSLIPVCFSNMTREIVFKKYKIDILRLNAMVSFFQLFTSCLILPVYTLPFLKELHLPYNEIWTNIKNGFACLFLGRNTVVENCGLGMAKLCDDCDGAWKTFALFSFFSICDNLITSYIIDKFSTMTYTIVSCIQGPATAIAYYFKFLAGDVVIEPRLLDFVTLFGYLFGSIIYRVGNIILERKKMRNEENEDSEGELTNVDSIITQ
PfCRT^3D7, sequence (Q8IBZ9 59-398): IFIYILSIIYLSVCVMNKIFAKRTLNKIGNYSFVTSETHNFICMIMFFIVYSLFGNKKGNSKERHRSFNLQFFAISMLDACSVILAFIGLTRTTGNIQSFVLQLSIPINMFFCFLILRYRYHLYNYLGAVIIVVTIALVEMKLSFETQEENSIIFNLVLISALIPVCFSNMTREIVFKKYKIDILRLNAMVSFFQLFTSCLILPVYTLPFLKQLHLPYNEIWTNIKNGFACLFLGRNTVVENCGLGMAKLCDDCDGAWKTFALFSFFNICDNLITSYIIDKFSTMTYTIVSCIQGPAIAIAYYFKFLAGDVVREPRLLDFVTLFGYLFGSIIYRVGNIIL
T2 sequence (Q8IDM6 whole entry): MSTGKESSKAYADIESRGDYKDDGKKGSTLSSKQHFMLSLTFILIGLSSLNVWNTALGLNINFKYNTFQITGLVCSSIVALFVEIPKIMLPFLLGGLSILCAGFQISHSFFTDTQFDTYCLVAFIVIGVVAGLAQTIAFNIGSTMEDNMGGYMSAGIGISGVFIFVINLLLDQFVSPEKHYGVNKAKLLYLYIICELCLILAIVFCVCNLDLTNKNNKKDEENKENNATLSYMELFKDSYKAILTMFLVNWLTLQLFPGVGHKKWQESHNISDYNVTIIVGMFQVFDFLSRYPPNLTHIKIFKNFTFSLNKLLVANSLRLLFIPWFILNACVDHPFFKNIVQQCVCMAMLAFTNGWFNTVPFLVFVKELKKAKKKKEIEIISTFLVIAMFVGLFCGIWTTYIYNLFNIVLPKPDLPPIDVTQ
T1 sequence (Q9N623 whole entry A220S/I356L/K76T/N326D): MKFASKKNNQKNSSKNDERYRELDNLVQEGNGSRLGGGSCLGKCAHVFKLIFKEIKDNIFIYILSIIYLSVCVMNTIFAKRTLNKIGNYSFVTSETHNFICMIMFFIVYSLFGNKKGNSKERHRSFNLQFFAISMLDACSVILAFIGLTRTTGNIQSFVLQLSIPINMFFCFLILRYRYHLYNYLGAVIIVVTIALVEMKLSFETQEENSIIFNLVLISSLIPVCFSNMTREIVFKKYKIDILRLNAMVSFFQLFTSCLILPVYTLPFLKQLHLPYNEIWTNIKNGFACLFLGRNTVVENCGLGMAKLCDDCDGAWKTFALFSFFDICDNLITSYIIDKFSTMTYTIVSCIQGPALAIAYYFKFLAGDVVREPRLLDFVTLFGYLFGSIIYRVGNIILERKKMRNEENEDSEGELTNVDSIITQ

NC(=O)C[C@H](N)C(=O)O [L-asparagine]
Uptake of [3H]CQ (% PfCRTEcu1110 control), trans-stimulation ([1]; [test solute]i = 5 mM): 98 ± 4.1 % PfCRTEcu1110 control
Uptake of [3H]CQ (% PfCRTEcu1110 control), trans-stimulation [1, 7]: 98 ± 3.2 % PfCRTEcu1110 control
PfCRT-mediated [3H]CQ transport, trans-stimulation (% PfCRTEcu1110 control) [1, 8]: 96 ± 2.1 % PfCRTEcu1110 control
PfCRT-mediated [3H]CQ transport, trans-stimulation (% PfCRTEcu1110 control) [1, 9]: 96 ± 2.7 % PfCRTEcu1110 control
Uptake of [3H]CQ (% PfCRTDd2 control), trans-stimulation, PfCRTEcu1110 [1, 8]: 35 ± 1.8 % PfCRTDd2 control
Uptake of [3H]CQ (% PfCRTDd2 control), trans-stimulation, PfCRTEcu1110 [1, 9]: 35 ± 2.1 % PfCRTDd2 control
[3H]CQ transport (% PfCRTDd2 control), trans-stimulation, PfCRTEcu1110 [1, 10]: 32 ± 1.6 % PfCRTEcu1110 control
[3H]CQ transport (% PfCRTDd2 control), trans-stimulation, PfCRTEcu1110 [1, 7]: 32 ± 2.1 % PfCRTEcu1110 control
Uptake of [3H]CQ (% PfCRT3D7 control), trans-stimulation ([2]; [test solute]i = 5 mM): 100 ± 4.2 % PfCRT3D7 control
Uptake of [3H]CQ (% PfCRT3D7 control), trans-stimulation [2, 7]: 100 ± 3.7 % PfCRT3D7 control
PfCRT-mediated [3H]CQ transport, trans-stimulation (% PfCRT3D7 control) [2, 8]: 98 ± 3.6 % PfCRT3D7 control
PfCRT-mediated [3H]CQ transport, trans-stimulation (% PfCRT3D7 control) [2, 9]: 98 ± 2.8 % PfCRT3D7 control
Uptake of [3H]CQ (% PfCRTDd2 control), trans-stimulation, PfCRT3D7 [2, 8]: 3.3 ± 0.01 % PfCRTDd2 control
Uptake of [3H]CQ (% PfCRTDd2 control), trans-stimulation, PfCRT3D7 [2, 9]: 3.3 ± 0.04 % PfCRTDd2 control
Uptake of [3H]CQ (% PfNT1 control), trans-stimulation ([3]; [test solute]i = 5 mM): 100 ± 2.5 % PfNT1 control
Uptake of [3H]CQ (% PfNT1 control), trans-stimulation [3, 7]: 99 ± 3.6 % PfNT1 control
Uptake of [3H]CQ (% PfCRTDd2 control), trans-stimulation, PfNT1 [3, 8]: 2.8 ± 0.04 % PfCRTDd2 control
Uptake of [3H]CQ (% PfCRTDd2 control), trans-stimulation, PfNT1 [3, 9]: 3.1 ± 0.06 % PfCRTDd2 control
Uptake of [3H]CQ (% PfCRTDd2 control), trans-stimulation ([4]; [test solute]i = 5 mM): 101 ± 3.1 % PfCRTDd2 control
Uptake of [3H]CQ (% PfCRTDd2 control), trans-stimulation [4, 7]: 98 ± 2.4 % PfCRTDd2 control
PfCRT-mediated [3H]CQ transport, trans-stimulation (% PfCRTDd2 control) [4, 8]: 99 ± 2.4 % PfCRTDd2 control
PfCRT-mediated [3H]CQ transport, trans-stimulation (% PfCRTDd2 control) [4, 9]: 96 ± 3.2 % PfCRTDd2 control
Uptake of [3H]CQ (% PfCRTDd2 control), trans-stimulation, PfCRTDd2 [4, 8]: 101 ± 3.1 % PfCRTDd2 control
Uptake of [3H]CQ (% PfCRTDd2 control), trans-stimulation, PfCRTDd2 [4, 9]: 98 ± 2.4 % PfCRTDd2 control
[3H]CQ transport (% PfCRTDd2 control), trans-stimulation, PfCRTDd2 [4, 10]: 99 ± 2.4 % PfCRTDd2 control
[3H]CQ transport (% PfCRTDd2 control), trans-stimulation, PfCRTDd2 [4, 7]: 96 ± 3.2 % PfCRTDd2 control
Tested as potential co-substrate but not required for influx of VF-6 via PfCRT into the oocyte [5]: X
Uptake of [3H]CQ (% PfCRTEcu1110 control), cis-inhibition ([6]; [test solute] = 0.5 mM): 96 ± 6.6 % PfCRTEcu1110 control
Uptake of [3H]CQ (% PfCRTEcu1110 control), cis-inhibition ([6]; [test solute] = 1 mM): 88 ± 6.1 % PfCRTEcu1110 control
Uptake of [3H]CQ (% PfCRTEcu1110 control), cis-inhibition ([6]; [test solute] = 2 mM): 102 ± 6.2 % PfCRTEcu1110 control
PfCRT-mediated [3H]CQ transport, cis-inhibition (% PfCRTEcu1110 control) ([6]; [test solute] = 0.5 mM, background [3H]CQ accumulation subtracted, normalised to oocyte type control): 94 ± 3.6 % PfCRTEcu1110 control
